The values that follow come from ChEMBL document CHEMBL1136685, “Structure-activity relationship of cyclic peptide penta-c[Asp-His(6)-DPhe(7)-Arg(8)-Trp(9)-Lys]-NH(2) at the human melanocortin-1 and -4 receptors: His(6) substitution” (Bioorg Med Chem Lett, 2003).

The term EC50 denotes the concentration giving half of the maximal effect. Read a low EC50 as greater potency. Broadly, the IC50 is the point on the concentration scale where inhibition reaches its midpoint. A lower IC50 goes with inhibition by little substance.

Assay [1] concerns the target Melanocortin receptor 3 (Homo sapiens, UniProt P41968). The assay can be described thus: Agonistic activity against human melanocortin receptor (hMC3R) for cAMP accumulation. The class given is functional.
The target of assay [2] is T1, Melanocortin receptor 4 (Homo sapiens, UniProt P32245). In words: Agonist activity at human melanocortin receptor (hMC4R). In kind it is functional.
The target in assay [3] is T2, Melanocyte-stimulating hormone receptor (Homo sapiens, UniProt Q01726). In words: Agonist activity at human melanocortin receptor (hMC1R). In kind it is functional.
Target sequence in this assay (Q01726 whole entry): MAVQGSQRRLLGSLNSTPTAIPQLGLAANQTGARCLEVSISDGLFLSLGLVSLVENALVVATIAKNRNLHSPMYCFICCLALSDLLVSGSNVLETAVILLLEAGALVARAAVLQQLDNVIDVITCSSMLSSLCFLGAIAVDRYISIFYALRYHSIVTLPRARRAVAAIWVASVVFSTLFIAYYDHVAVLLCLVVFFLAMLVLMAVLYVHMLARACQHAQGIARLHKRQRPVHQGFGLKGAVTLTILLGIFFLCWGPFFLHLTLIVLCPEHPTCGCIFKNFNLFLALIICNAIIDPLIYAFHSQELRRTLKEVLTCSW
Assay [4] addresses Melanocortin receptor 5 (Homo sapiens, UniProt P33032). The assay can be described thus: Agonistic activity against human melanocortin receptor (hMC5R) for cAMP accumulation. In kind it is functional.
In assay [5] the target is Melanocortin receptor 4. The assay can be described thus: (§1) Agonistic activity against human melanocortin receptor (hMC1R) for cAMP accumulation. The class given is functional. For orientation: cAMP levels reflect the balance of adenylyl cyclase and phosphodiesterase activity.
Assay [6] concerns the target T2, Melanocyte-stimulating hormone receptor. Described as §1. The class given is functional.
Target sequence in this assay (Q01726 whole entry, looked up): as the sequence (Q01726 whole entry) above
For assay [7] the target is unchanged. The assay can be described thus: Binding affinity towards human melanocortin receptor (hMC1R) using NDP-MSH as radioligand.
Target sequence in this assay (Q01726 whole entry): as above
Assay [8] addresses T1, Melanocortin receptor 4. The assay can be described thus: Agonistic activity against human melanocortin receptor (hMC4R) for cAMP accumulation. The class given is functional.
Assay [9] has as its target T1, Melanocortin receptor 4. The assay can be described thus: Binding affinity towards human melanocortin receptor (hMC4R) using NDP-MSH as radioligand.

T1 sequence (P32245 whole entry): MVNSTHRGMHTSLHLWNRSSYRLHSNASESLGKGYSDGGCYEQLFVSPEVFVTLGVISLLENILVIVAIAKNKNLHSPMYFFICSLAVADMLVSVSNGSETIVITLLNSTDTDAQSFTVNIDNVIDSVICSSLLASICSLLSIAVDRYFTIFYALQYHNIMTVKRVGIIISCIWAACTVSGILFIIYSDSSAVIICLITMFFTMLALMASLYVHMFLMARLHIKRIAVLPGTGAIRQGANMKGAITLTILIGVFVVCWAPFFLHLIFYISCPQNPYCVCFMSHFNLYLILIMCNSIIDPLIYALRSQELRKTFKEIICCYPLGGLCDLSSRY
Chain of Melanocortin receptor 3 (P41968 whole entry): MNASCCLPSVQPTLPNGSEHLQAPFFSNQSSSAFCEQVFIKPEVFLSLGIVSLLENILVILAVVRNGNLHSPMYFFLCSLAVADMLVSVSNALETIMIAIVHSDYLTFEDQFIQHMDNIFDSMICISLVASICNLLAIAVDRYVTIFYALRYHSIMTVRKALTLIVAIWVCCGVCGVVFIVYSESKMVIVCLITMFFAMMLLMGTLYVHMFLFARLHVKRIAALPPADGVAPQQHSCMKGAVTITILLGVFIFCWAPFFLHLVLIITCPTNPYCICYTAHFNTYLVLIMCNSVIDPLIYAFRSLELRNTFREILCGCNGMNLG
Chain of Melanocortin receptor 5 (P33032 whole entry): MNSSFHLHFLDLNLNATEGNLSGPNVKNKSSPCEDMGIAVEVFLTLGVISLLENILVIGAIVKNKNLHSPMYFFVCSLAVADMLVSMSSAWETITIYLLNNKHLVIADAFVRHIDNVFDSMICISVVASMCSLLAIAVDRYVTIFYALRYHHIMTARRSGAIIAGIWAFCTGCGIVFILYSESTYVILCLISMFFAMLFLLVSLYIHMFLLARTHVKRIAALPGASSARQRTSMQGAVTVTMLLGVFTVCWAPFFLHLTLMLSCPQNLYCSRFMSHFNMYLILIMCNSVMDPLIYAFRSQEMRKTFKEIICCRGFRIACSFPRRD

Consider `CCCCC(=O)N[C@H]1CC(=O)NCCCC[C@@H](C(N)=O)NC(=O)[C@H](Cc2c[nH]c3ccccc23)NC(=O)[C@H](CCCNC(=N)N)NC(=O)[C@@H](Cc2ccccc2)NC(=O)[C@H](Cc2cnc[nH]2)NC1=O`, for which the EC50 in assay [1] turned out to be 6 nM; in [2] it was 0.9 nM; in assay [3], 0.4 nM; in assay [4] it was 33 nM.

Take `CCCCC(=O)N[C@H]1CC(=O)NCCCC[C@@H](C(N)=O)NC(=O)[C@H](Cc2c[nH]c3ccccc23)NC(=O)[C@H](CCCNC(=N)N)NC(=O)[C@@H](Cc2ccccc2)NC(=O)[C@H](Cc2ccc(-c3ccccc3)cc2)NC1=O`: the results for the EC50 in [5] and in [2] were 53 nM and 6 nM, respectively.

As for `CCCCC(=O)N[C@H]1CC(=O)NCCCC[C@@H](C(N)=O)NC(=O)[C@H](Cc2c[nH]c3ccccc23)NC(=O)[C@H](CCCN=C(N)N)NC(=O)[C@@H](Cc2ccccc2)NC(=O)[C@@H]2c3ccccc3CN2C1=O` (single isomer, unassigned; form 1), the EC50 in assay [6] worked out at 56 nM; in assay [2], 118 nM.

`CCCCC(=O)N[C@H]1CC(=O)NCCCC[C@@H](C(N)=O)NC(=O)[C@H](Cc2c[nH]c3ccccc23)NC(=O)[C@H](CCCNC(N)=O)NC(=O)[C@@H](Cc2ccccc2)NC(=O)C2(CCc3c(Cl)cccc3C2)NC1=O` (single isomer, unassigned; form 1): the values for the IC50 in assay [7] and in [9] were 13100 nM and 410 nM, respectively. In addition, in assay [8], the response was half-maximal at 48 nM (EC50).

On to `CCCCC(=O)N[C@H]1CC(=O)NCCCC[C@@H](C(N)=O)NC(=O)[C@H](Cc2c[nH]c3ccccc23)NC(=O)[C@H](CCCN=C(N)N)NC(=O)[C@@H](Cc2ccccc2)NC(=O)C2(CCc3c(Cl)cccc3C2)NC1=O` (single isomer, unassigned; form 1), for which the IC50 is 5820 nM in [7] and 15 nM in [9]. Also, in assay [8], the midpoint of the response, the EC50, lay at 4 nM.

As for `CCCCC(=O)N[C@H]1CC(=O)NCCCC[C@@H](C(N)=O)NC(=O)[C@H](Cc2c[nH]c3ccccc23)NC(=O)[C@H](CCCNC(N)=O)NC(=O)[C@@H](Cc2ccccc2)NC(=O)C2(CCc3c(Cl)cccc3C2)NC1=O` (single isomer, unassigned; form 2), the concentration for half-maximal inhibition (IC50) in assay [7] was determined as 14800 nM; in assay [9] it was 675 nM. In [8], this compound gave an EC50 of 105 nM.

In [8], `CCCCC(=O)N[C@H]1CC(=O)NCCCC[C@@H](C(N)=O)NC(=O)[C@H](Cc2c[nH]c3ccccc23)NC(=O)[C@H](CCCN=C(N)N)NC(=O)[C@@H](Cc2ccccc2)NC(=O)C2(CCc3c(Cl)cccc3C2)NC1=O` (single isomer, unassigned; form 2) had an EC50 of 40 nM.
